{
  "source": "paper PMC5618191",
  "about": "(Toxins, 2017)",
  "key": {"HUVEC cells": {"tested_on": "HUVEC cells", "test": "Vessel forming and migratory ability of HUVEC cells", "type": "cell-based, human", "conditions": "subtoxic concentrations, unpublished data"}, "[1]": {"tested_on": "HaCaT non-malignant keratinocytes", "test": "Cell viability assay (MTT, 72 h)", "type": "cell-based, human", "protocol": "(§1) For the cell lines KB-3-1 and SW480 2 × 10^3 cells, for NIH/3T3, CT-26, HaCaT, and GH354 cells 3 × 10^3 cells and for ME-180 and SW620 cells 4 × 10^3 cells were seeded into 96-well pates and incubated at 37 °C (5% CO2) overnight. […] For higher cell confluency, NIH/3T3, CT-26, HaCaT, KB-3-1, and SW480 cells were grown to a cell density of approximately 50–60% before treatment. […] The percentage of viable cells was detected after incubation with 3-(4,5-dimethylthiazol-2-yl)-2,5-diphenyltetrazolium bromide (MTT) at 37 °C for 1–4 h, depending on the cell line, according to the user manual (EZ4U, Biomedica, Vienna, Austria). […] All experiments were conducted using full-growth media with 10% FBS in triplicate and repeated three times. The cell confluency was analyzed by Image J 1.50i (NIH, New York, NY, USA)."}, "[2]": {"tested_on": "ME-180 cervix metastasis cells", "test": "Cell viability assay (MTT, 72 h)", "type": "cell-based, human", "conditions": "ME-180, sparse (5–10% confluency)", "protocol": "as §1"}, "[3]": {"tested_on": "GH354 cervix adenocarcinoma cells", "test": "Cell viability assay (MTT, 72 h)", "type": "cell-based, human", "conditions": "GH354, sparse (5–10% confluency)", "protocol": "as §1"}, "[4]": {"tested_on": "KB-3-1 cervix carcinoma cells", "test": "Cell viability assay (MTT, 72 h)", "type": "cell-based, human", "protocol": "as §1"}, "[5]": {"tested_on": "SW620 colon metastasis cells", "test": "Cell viability assay (MTT, 72 h)", "type": "cell-based, human", "protocol": "as §1"}, "[6]": {"tested_on": "SW480 colorectal adenocarcinoma cells", "test": "Cell viability assay (MTT, 72 h)", "type": "cell-based, human", "protocol": "as §1"}, "[7]": {"tested_on": "CT-26 murine colon carcinoma cells", "test": "Cell viability assay (MTT, 72 h)", "type": "cell-based, mouse", "protocol": "as §1"}, "[8]": {"tested_on": "NIH/3T3 murine non-malignant fibroblasts", "test": "Cell viability assay (MTT, 72 h)", "type": "cell-based, mouse", "protocol": "as §1"}, "[9]": {"conditions": "KB-3-1, sparse (5–10% confluency)"}, "[10]": {"conditions": "SW620, sparse (5–10% confluency), 72 h"}, "[11]": {"conditions": "SW480, sparse (5–10% confluency)"}, "[12]": {"conditions": "CT-26, sparse (5–10% confluency), 72 h"}, "[13]": {"conditions": "NIH/3T3, sparse (5–10% confluency), 72 h"}},
  "note": "Read-outs that look alike come from different tables or passages of the source.",
  "data": [
    {"substance": "beauvericin", "values": [
      {"measurement": "Vessel forming and migratory ability of HUVEC cells", "setting": "HUVEC cells", "value": "distinctly inhibited"},
      {"measurement": "IC50", "setting": "[1]; higher density (50–60% confluency), read-out: IC50 value", "value": "> 10", "unit": "µM"},
      {"measurement": "Mean IC25 ± SD", "setting": "[1]; sparse (5–10% confluency)", "value": "2.7 ± 0.2", "unit": "µM"},
      {"measurement": "Mean IC75 ± SD", "setting": "[1]; sparse (5–10% confluency)", "value": "4.8 ± 0.7", "unit": "µM"},
      {"measurement": "IC50", "setting": "[1]; sparse (5–10% confluency), read-out: Mean IC50 ± SD", "value": "3.9 ± 0.4", "unit": "µM"},
      {"measurement": "Mean IC25 ± SD", "setting": "[2]", "value": "1.6 ± 0.8", "unit": "µM"},
      {"measurement": "Mean IC75 ± SD", "setting": "[2]", "value": "4.5 ± 1.2", "unit": "µM"},
      {"measurement": "IC50", "setting": "[2]; read-out: Mean IC50 ± SD", "value": "2.2 ± 0.7", "unit": "µM"},
      {"measurement": "Mean IC25 ± SD", "setting": "[3]", "value": "2.2 ± 0.6", "unit": "µM"},
      {"measurement": "Mean IC75 ± SD", "setting": "[3]", "value": "6.3 ± 2.1", "unit": "µM"},
      {"measurement": "IC50", "setting": "[3]; read-out: Mean IC50 ± SD", "value": "3.6 ± 1.2", "unit": "µM"},
      {"measurement": "IC50", "setting": "[4]; KB-3-1, higher density (50–60% confluency), read-out: IC50 value", "value": 4.3, "unit": "µM"},
      {"measurement": "Mean IC25 ± SD", "setting": "[4]; [9]", "value": "2.6 ± 0.9", "unit": "µM"},
      {"measurement": "Mean IC75 ± SD", "setting": "[4]; [9]", "value": "3.6 ± 0.9", "unit": "µM"},
      {"measurement": "IC50", "setting": "[4]; KB-3-1, sparse (5–10% confluency), read-out: Mean IC50 ± SD", "value": "3.1 ± 0.7", "unit": "µM"},
      {"measurement": "Mean IC25 ± SD", "setting": "[5]; [10]", "value": "0.3 ± 0.02", "unit": "µM"},
      {"measurement": "Mean IC75 ± SD", "setting": "[5]; [10]", "value": "1.9 ± 0.2", "unit": "µM"},
      {"measurement": "IC50", "setting": "[5]; SW620, sparse (5–10% confluency), 72 h, read-out: Mean IC50 ± SD", "value": "0.7 ± 0.1", "unit": "µM"},
      {"measurement": "IC50 of SW620 lower as compared to SW480", "setting": "[5]; sparse conditions", "value": 4.7, "unit": "fold"},
      {"measurement": "IC50 of SW620 lower than normal HaCaT cells", "setting": "[5]; sparse conditions", "value": 5.6, "unit": "fold"},
      {"measurement": "IC50", "setting": "[6]; SW480, higher density (50–60% confluency), read-out: IC50 value", "value": 3.7, "unit": "µM"},
      {"measurement": "Mean IC25 ± SD", "setting": "[6]; [11]", "value": "2.1 ± 1.3", "unit": "µM"},
      {"measurement": "Mean IC75 ± SD", "setting": "[6]; [11]", "value": "4.2 ± 2.7", "unit": "µM"},
      {"measurement": "IC50", "setting": "[6]; SW480, sparse (5–10% confluency), read-out: Mean IC50 ± SD", "value": "3.3 ± 0.3", "unit": "µM"},
      {"measurement": "Tumor cell viability", "setting": "[7]; 0.5 µM, higher density (50–60%), murine models", "value": "significantly reduced"},
      {"measurement": "Mean IC25 ± SD", "setting": "[7]; [12]", "value": "1.4 ± 0.2", "unit": "µM"},
      {"measurement": "Mean IC75 ± SD", "setting": "[7]; [12]", "value": "2.7 ± 0.5", "unit": "µM"},
      {"measurement": "IC50", "setting": "[7]; CT-26, sparse (5–10% confluency), 72 h, read-out: Mean IC50 ± SD", "value": "1.8 ± 0.2", "unit": "µM"},
      {"measurement": "Viability of non-malignant cells", "setting": "[8]; 1 µM, higher density (50–60%), murine models", "value": "no reduction of viability"},
      {"measurement": "IC50", "setting": "[8]; NIH-3T3, higher density (50–60% confluency), 72 h, read-out: IC50 value", "value": 9.4, "unit": "µM"},
      {"measurement": "Mean IC25 ± SD", "setting": "[8]; [13]", "value": "1.2 ± 0.6", "unit": "µM"},
      {"measurement": "Mean IC75 ± SD", "setting": "[8]; [13]", "value": "6.5 ± 0.7", "unit": "µM"},
      {"measurement": "IC50", "setting": "[8]; NIH/3T3, sparse (5–10% confluency), 72 h, read-out: Mean IC50 ± SD", "value": "3.1 ± 0.2", "unit": "µM"},
      {"measurement": "IC50 higher for non-malignant NIH/3T3 as compared to CT-26", "setting": "[8]; sparse conditions", "value": 1.7, "unit": "fold"},
      {"measurement": "IC75 higher for non-malignant NIH/3T3 as compared to CT-26", "setting": "[8]; sparse conditions", "value": 2.4, "unit": "fold"}
    ]}
  ]
}
